Laboratory results taken from paper PMC9721025, “Pharmacokinetic study of the main components of Tanreqing capsules and Tanreqing injections in beagles by liquid chromatography–tandem mass spectrometry” (Chinese Medicine, 2022).
Read-outs that look alike come from different tables or passages of the source.

Columns and labels:
[1] = cited from earlier work; for t1/2: Tanreqing injection
[2] = Stability of analytes in dog plasma (QC samples); assay type: in vitro ADME
Description: The stock solutions of all analytes were further mixed and diluted with methanol/water (10:90, v/v) solution to prepare the working solutions. […] The QC samples were stored in a refrigerator at – 80 °C until retrieval (see Additional file 1). The stability, which includes short-term stability (6 h at room temperature), long-term stability (− 80 °C for 30 days in the refrigerator), and freeze–thaw stability (three cycles from − 80 °C to room temperature), were assessed using QC samples at three concentration levels in three replicates. […] Similarly, there were no obvious effects on the analysis results of the samples with respect to short-term stability or long-term storage.

[3] = Pharmacokinetics in beagles, multiple-dose regimen (once per day for 7 days) of TRQI or TRQC, plasma LC-MS/MS; assay type: in vivo; conditions: beagle, dog; for Cmax at 7 days / Tmax at 7 days / half-life at 7 days: mean
Description: (§1) 100 μL plasma sample was drawn and transferred to 1.5 mL centrifuge tube prior to 300 μL protein precipitant (3:1 [v/v] methanol/acetonitrile, containing 0.1% formic acid and 100 ng/mL IS) was added, and then the sample was vortex-mixed for 3 min. The mixture was centrifuged at 20,000 ×g for 10 min, and 100 μL supernatant was transferred to the injection vial and analyzed directly by LC–MS/MS.
(§2) This study was carried out in six beagles (three males and three females, 9.0–12.0 kg each), that were purchased from Junda Pet Hospital (Shanghai, China). This experimental protocol was approved by the Experimental Animal Ethics Committee of the Naval Military Medical University (Shanghai, China).
After the end of the single-dose experiment, the dogs in group one were given 0.5 mL/kg injection of TRQI once per day for 7 days following the wash out period, and the dogs in group two were given 0.09 g/kg TRQC once per day for 7 days. After the seventh administration, blood samples were collected at 0, 10, 20, and 40 min and then at 1, 1.5, 2, 2.5, 3, 4, 6, 8, 12, and 24 h (a total of 14 time points) and were processed as described in “Single-dose regimen” section. The resulting plasma samples were used to determine the steady-state plasma concentration of TRQI and TRQC. A crossover study was again carried out in both groups, as described in “Single-dose regimen” section, after a 7-day washing period.
(§3) All data obtained were analyzed using Drug and Statistics (DAS) 2.0 software (Chinese Society of Pharmacology), and a non-compartment analysis was used to calculate plasma pharmacokinetic parameters. The principal components of TRQI and TRQC were compared with an analysis of variance (ANOVA) and/or a two-tailed student-t test.

[4] = Pharmacokinetics in beagles, single-dose regimen of TRQI (i.v.) or TRQC (oral), plasma LC-MS/MS; assay type: in vivo, beagle; conditions: for AUC(0-t) / Cmax / Tmax / half-life: beagle, dog, plasma; for AUC(0-t): read-out: AUC0–24 h; for Cmax / Tmax / half-life: mean of six beagles
Description: as §1, §2
The six healthy beagles were divided into two groups: beagles 1–3 were all male and were assigned to the first group, and beagles 4–6 were all females and assigned to the second group. The two-cycle, crossover study was designed with a 7-day wash out period. For the single-administration process, the dogs in the first group were injected intravenously with 0.5 mL/kg TRQI (one-third of the normal daily dose), and blood samples were collected at 0, 5, 10, 15, 20, 30, and 45 min and then at 1, 2, 4, 6, 8, 12, and 24 h (a total of 14 time points) after injection. For each blood sample, 1 mL of blood was collected from the forelimb vein in heparin-treated tubes. The dogs in the second group were orally administrated 0.09 g/kg TRQC (one-third of the normal daily dose, and blood samples were collected in the same manner at 0, 10, 20, and 40 min and then at 1, 1.5, 2, 2.5, 3, 4, 6, 8, 12, and 24 h (a total of 14 time points). All blood samples were centrifuged at 4000 × g for 5 min, and each supernatant was collected and aliquoted. After a 7-day wash out period, the dogs in each group were administrated the other Tanreqing formulation in a crossover design, and blood samples were collected and processed in the same way.
as §3

[5] = n = 3, high QC: nominal 200 ng/mL baicalin, 1000 ursodeoxycholic acid, 100 chenodeoxycholic acid and chlorogenic acid
[6] = n = 3, low QC: nominal 4 ng/mL baicalin, 20 ursodeoxycholic acid, 2 chenodeoxycholic acid and chlorogenic acid
[7] = n = 3, middle QC: nominal 20 ng/mL baicalin, 100 ursodeoxycholic acid, 10 chenodeoxycholic acid and chlorogenic acid
[8] = both sexes, iv, TRQI 0.5 mL/kg once per day for 7 days
[9] = both sexes, po, TRQC 0.09 g/kg once per day for 7 days
[10] = both sexes, iv, single i.v. dose of TRQI 0.5 mL/kg
[11] = both sexes, single oral dose of TRQC 0.09 g/kg

In the case of `O=C(O)[C@H]1O[C@@H](Oc2cc3oc(-c4ccccc4)cc(=O)c3c(O)c2O)[C@H](O)[C@@H](O)[C@@H]1O` [Baicalin, baicalin], the t1/2 ([1]; Hu's study) is listed as 0.8 h, the t1/2 ([1]; another study) is listed as 3.6 h and the clearance rate ([1]; rat, TRQI) is listed as 24.3 mL/min/kg. For the same compound, the volume of distribution ([1]; rat, TRQI) was 1.07 L/kg, the “Freeze-thaw stability (3 cycles) Mean ± S.D. concentration” value (“Freeze-thaw stability” below) [2, 5] was 202.81 ± 10.87 ng/mL and the “Long-term stability (30 days at – 80 °C) Mean ± S.D. concentration” value (shortened to “Long-term stability”) [2, 5] was 175.01 ± 4.57 ng/mL. The “Short-term stability (6 h at room temperature) Mean ± S.D concentration” value (shortened to “Short-term stability”) [2, 5] was 182.83 ± 7.72 ng/mL, the “Freeze-thaw stability” value [2, 6] was 3.97 ± 0.36 ng/mL and the “Long-term stability” value [2, 6] was 3.50 ± 0.07 ng/mL. For the same compound, the “Short-term stability” value [2, 6] was 4.01 ± 0.31 ng/mL, the “Freeze-thaw stability” value [2, 7] was 17.88 ± 0.92 ng/mL and the “Long-term stability” value [2, 7] was 17.47 ± 0.42 ng/mL. For the same compound, the “Short-term stability” value [2, 7] was 18.43 ± 0.75 ng/mL, the AUC(0-inf) ([3]; both sexes, iv, 0.5 mL/kg, TRQI 0.5 mL/kg for 7 days, Mean) was 548 ng·h/mL and the AUC(0-t) ([3]; both sexes, iv, 0.5 mL/kg, TRQI 0.5 mL/kg for 7 days, Mean, read-out: AUC0–24 h) was 395 ng·h/mL. It also gave a Cmax at 7 days [3, 8] of 1370 ng/mL, a Tmax at 7 days [3, 8] of 0.11 h and a half-life at 7 days [3, 8] of 5.54 h. For the same compound, the AUC(0-inf) ([3]; both sexes, po, 0.09 g/kg, TRQC 0.09 g/kg for 7 days, Mean) was 142 ng·h/mL, the AUC(0-t) ([3]; both sexes, po, 0.09 g/kg, TRQC 0.09 g/kg for 7 days, Mean, read-out: AUC0–24 h) was 107 ng·h/mL and the Cmax at 7 days [3, 9] was 12.2 ng/mL. For the same compound, the Tmax at 7 days [3, 9] was 7.25 h, the half-life at 7 days [3, 9] was 12.1 h and the AUC(0-inf) ([3]; female, iv, 0.5 mL/kg, TRQI 0.5 mL/kg for 7 days, beagle No. 4) was 670 ng·h/mL. For the same compound, the AUC(0-t) ([3]; female, iv, 0.5 mL/kg, TRQI 0.5 mL/kg for 7 days, beagle No. 4, read-out: AUC0–24 h) was 527 ng·h/mL, the AUC(0-inf) ([3]; female, iv, 0.5 mL/kg, TRQI 0.5 mL/kg for 7 days, beagle No. 5) was 711 ng·h/mL and the AUC(0-t) ([3]; female, iv, 0.5 mL/kg, TRQI 0.5 mL/kg for 7 days, beagle No. 5, read-out: AUC0–24 h) was 526 ng·h/mL. It also gave an AUC(0-inf) ([3]; female, iv, 0.5 mL/kg, TRQI 0.5 mL/kg for 7 days, beagle No. 6) of 1290 ng·h/mL, an AUC(0-t) ([3]; female, iv, 0.5 mL/kg, TRQI 0.5 mL/kg for 7 days, beagle No. 6, read-out: AUC0–24 h) of 865 ng·h/mL and an AUC(0-inf) ([3]; female, po, 0.09 g/kg, TRQC 0.09 g/kg for 7 days, beagle No. 4) of 88.3 ng·h/mL. For the same compound, the AUC(0-t) ([3]; female, po, 0.09 g/kg, TRQC 0.09 g/kg for 7 days, beagle No. 4, read-out: AUC0–24 h) was 68 ng·h/mL, the AUC(0-inf) ([3]; female, po, 0.09 g/kg, TRQC 0.09 g/kg for 7 days, beagle No. 5) was 398 ng·h/mL and the AUC(0-t) ([3]; female, po, 0.09 g/kg, TRQC 0.09 g/kg for 7 days, beagle No. 5, read-out: AUC0–24 h) was 245 ng·h/mL. The AUC(0-inf) ([3]; female, po, 0.09 g/kg, TRQC 0.09 g/kg for 7 days, beagle No. 6) was 44.3 ng·h/mL, the AUC(0-t) ([3]; female, po, 0.09 g/kg, TRQC 0.09 g/kg for 7 days, beagle No. 6, read-out: AUC0–24 h) was 32.5 ng·h/mL and the AUC(0-inf) ([3]; male, iv, 0.5 mL/kg, TRQI 0.5 mL/kg for 7 days, beagle No. 1) was 45.8 ng·h/mL. It also gave an AUC(0-t) ([3]; male, iv, 0.5 mL/kg, TRQI 0.5 mL/kg for 7 days, beagle No. 1, read-out: AUC0–24 h) of 42.6 ng·h/mL, an AUC(0-inf) ([3]; male, iv, 0.5 mL/kg, TRQI 0.5 mL/kg for 7 days, beagle No. 2) of 534 ng·h/mL and an AUC(0-t) ([3]; male, iv, 0.5 mL/kg, TRQI 0.5 mL/kg for 7 days, beagle No. 2, read-out: AUC0–24 h) of 370 ng·h/mL. For the same compound, the AUC(0-inf) ([3]; male, iv, 0.5 mL/kg, TRQI 0.5 mL/kg for 7 days, beagle No. 3) was 37.6 ng·h/mL, the AUC(0-t) ([3]; male, iv, 0.5 mL/kg, TRQI 0.5 mL/kg for 7 days, beagle No. 3, read-out: AUC0–24 h) was 36.8 ng·h/mL and the AUC(0-inf) ([3]; male, po, 0.09 g/kg, TRQC 0.09 g/kg for 7 days, beagle No. 1) was 80.5 ng·h/mL. The AUC(0-t) ([3]; male, po, 0.09 g/kg, TRQC 0.09 g/kg for 7 days, beagle No. 1, read-out: AUC0–24 h) was 79.6 ng·h/mL, the AUC(0-inf) ([3]; male, po, 0.09 g/kg, TRQC 0.09 g/kg for 7 days, beagle No. 2) was 164 ng·h/mL and the AUC(0-t) ([3]; male, po, 0.09 g/kg, TRQC 0.09 g/kg for 7 days, beagle No. 2, read-out: AUC0–24 h) was 149 ng·h/mL. The AUC(0-inf) ([3]; male, po, 0.09 g/kg, TRQC 0.09 g/kg for 7 days, beagle No. 3) was 74.3 ng·h/mL, the AUC(0-t) ([3]; male, po, 0.09 g/kg, TRQC 0.09 g/kg for 7 days, beagle No. 3, read-out: AUC0–24 h) was 69.7 ng·h/mL and the oral availability ([4]; TRQC in dogs) was “small”. The AUC(0-t) ([4]; both sexes, iv, 0.5 mL/kg, single TRQI 0.5 mL/kg, Mean) was 44.4 ng·h/mL, the Cmax [4, 10] was 1050 ng/mL and the Tmax [4, 10] was 0.08 h. It also gave a half-life [4, 10] of 6.75 h, an AUC(0-t) ([4]; both sexes, po, 0.09 g/kg, single TRQCs 0.09 g/kg, Mean) of 14.1 ng·h/mL and a Cmax [4, 11] of 4.79 ng/mL. The Tmax [4, 11] was 3.78 h, the half-life [4, 11] was 4.97 h and the AUC(0-t) ([4]; female, iv, 0.5 mL/kg, single TRQI 0.5 mL/kg, beagle No 4) was 161 ng·h/mL. It also gave an AUC(0-t) ([4]; female, iv, 0.5 mL/kg, single TRQI 0.5 mL/kg, beagle No 5) of 1.98 ng·h/mL, an AUC(0-t) ([4]; female, iv, 0.5 mL/kg, single TRQI 0.5 mL/kg, beagle No 6) of 39.9 ng·h/mL and an AUC(0-t) ([4]; female, po, 0.09 g/kg, single TRQCs 0.09 g/kg, beagle No 4) of 15.6 ng·h/mL. The AUC(0-t) ([4]; female, po, 0.09 g/kg, single TRQCs 0.09 g/kg, beagle No 5) was 1.15 ng·h/mL, the AUC(0-t) ([4]; female, po, 0.09 g/kg, single TRQCs 0.09 g/kg, beagle No 6) was 3.38 ng·h/mL and the AUC(0-t) ([4]; male, iv, 0.5 mL/kg, single TRQI 0.5 mL/kg, beagle No 1) was 44.5 ng·h/mL. The AUC(0-t) ([4]; male, iv, 0.5 mL/kg, single TRQI 0.5 mL/kg, beagle No 2) was 18.7 ng·h/mL, the AUC(0-t) ([4]; male, iv, 0.5 mL/kg, single TRQI 0.5 mL/kg, beagle No 3) was 0.47 ng·h/mL and the AUC(0-t) ([4]; male, po, 0.09 g/kg, single TRQCs 0.09 g/kg, beagle No 1) was 16 ng·h/mL. It also gave an AUC(0-t) ([4]; male, po, 0.09 g/kg, single TRQCs 0.09 g/kg, beagle No 2) of 36.4 ng·h/mL and an AUC(0-t) ([4]; male, po, 0.09 g/kg, single TRQCs 0.09 g/kg, beagle No 3) of 11.8 ng·h/mL.
